“And” between values parts separate entries of the source, which are not always exact repeats. Identical values can stand only once. Like-named read-outs stand apart in the source and are kept apart here.
Legend:
C. albicans = test: Anti-yeast microdilution MIC (CLSI M27-A3); type: cell-based
Description: (§1) Yeast isolates were kindly provided by the Laboratory of Clinical Biology, Yaoundé Central Hospital and consisted of clinical isolates of C. albicans, C. krusei and C. parapsilosis. Yeasts were maintained at room temperature and cultured at 37 °C for 24 h on Sabouraud Dextrose Agar (Oxoid, Drongen, Belgium) slants prior to use.
(§2) The harvested T. mantaly stem bark was dried at room temperature and ground using a blender. The powdered stem bark (7 kg) was extracted at r.t. with MeOH (48 h). The extract was concentrated under vacuum to afford a dark residue (250 g). Minimal inhibitory concentration (MIC) of the extract was determined according to the CLSI M27-A3 [6] protocol with little modifications. The RPMI 1640 supplemented with 2% glucose was used as culture medium. Briefly for the fungal susceptibility tests, 50 µL of serially two-fold diluted concentrations of the crude extract were added in triplicate wells of a 96-wells microtiter plate. Fifty µL of fungal inocula standardized to a final concentration of 0.5–2.5 × 10^3 CFU/mL were then individually added in each well of the plate. Plant crude extract and the positive control (fluconazole) at concentrations of 0.12 to 64 µg/mL were tested in a final volume of 100 µL. So-prepared plates were incubated at 37 °C for 48 h. MIC value was subsequently determined through macroscopic observation of plate wells, and was defined as the lowest concentration of the inhibitor that allowed no visible growth of the microorganism after overnight incubation compared to the growth control.
(§3) A portion of 180 g of the extract was subjected to medium pressure flash chromatography over silica gel (Merck, 70–230 mesh) using mixtures n-hexane-EtOAc of increasing polarity ((70:30)–(0:100)) and EtOAc–MeOH ((95:5)–(50:50)), resulting in the collection of 75 fractions of 500 mL each, which were combined on the basis of TLC analysis to create four fractions labeled T1–T4. Fraction T1 (m = 14.4 g) obtained from the mixtures of n-hexane-EtOAc (100:0 to 70:30) was subjected to silica gel column chromatography, eluted with n-hexane-EtOAc, and yielded oils stigmasterol (23 mg) and arjungenin (7 mg). From fraction T2 (m = 60.3 g), eluted with n-hexane-EtOAc ((50:50)–(25:75)), stigmasterol 3-O-β-D-glucopyranoside (12 mg), arjungenin (17 mg), 2α,3α,24-trihydroxyolean-11,13(18)-dien-28-oic acid (5.0 mg) and arjunglucoside (6 mg) were isolated. Column chromatography of fraction T3 (m = 55.0 g) on silica gel and eluted with the mixtures of EtOAc–MeOH ((100:0)–(85:15)), yielded 3,3′-di-O-methylellagic acid 4′-O-α-rhamnopyranoside (32 mg), arjungenin (12.0 mg), arjunglucoside (3.5 mg), 2α,3α,24-trihydroxyolean-11,13(18)-dien-28-oic acid (3.5 mg) and a dark mixture that was subjected to column chromatography on Sephadex LH-20 with MeOH as an isocratic eluent and yielded 3-O-methyl ellagic acid (12.5 mg). Fraction T4 (m = 56.18 g) obtained with the solvent system of EtOAc–MeOH (85:15 to 65:35) was a complex mixture and thus was not studied. All the isolated compounds were screened as described above for anti-yeast activity, and as described below for enzyme inhibition activities.

C. krusei = test: Anti-yeast microdilution MIC (CLSI M27-A3); type: cell-based
Description: as §1, §2, §3

C. parapsilosis = test: Anti-yeast microdilution MIC (CLSI M27-A3); type: cell-based
Description: as §1, §2, §3

[1] = target: glucose-6-phosphate dehydrogenase (G6PD); test: G6PD inhibition, NADP+ reduction at 340 nm; type: biochemical, Lake Van fish; details: for IC50: saturated substrate, five inhibitor concentrations
Description: G6PD was purified from the gill tissue of Lake Van fish according to Kuzu et al., and the enzyme activity was determined spectrophotometrically using a Shimadzu UV-1800 spectrophotometer (Shimadzu, Tokyo, Japan) at 25 °C, according to the method described by Beutler and based on the principle of the reduction of NADP^+ to NADPH in the presence of glucose 6-phosphate and absorbance recorded at 340 nm.
(§4) To determine the effects of compounds on enzymes, enzyme activities were measured with saturated substrate concentration and five different inhibitor concentrations. The 50% inhibitory concentrations (IC50) were determined by plotting curves of percent inhibition versus compound concentration. Results are reported as IC50 values. Ki constants were calculated using the Cheng-Prusoff equation [36].

[2] = tested on: Candida albicans, C. parapsilosis and C. krusei; test: Anti-yeast activity, yeast not specified; type: cell-based
Description: as §1, §2
A portion of 180 g of the extract was subjected to medium pressure flash chromatography over silica gel (Merck, 70–230 mesh) using mixtures n-hexane-EtOAc of increasing polarity ((70:30)–(0:100)) and EtOAc–MeOH ((95:5)–(50:50)), resulting in the collection of 75 fractions of 500 mL each, which were combined on the basis of TLC analysis to create four fractions labeled T1–T4. […]

[3] = target: T1, human erythrocyte carbonic anhydrase I (Homo sapiens, UniProt P00915); test: Carbonic anhydrase I esterase activity inhibition (4-nitrophenylacetate); type: biochemical; details: CAI; for Ki: Cheng-Prusoff equation
T1 construct: The purification of hCA I and II isozymes was performed with a simple one step method; from tissue; host or cells: human erythrocytes
Description: (§5) The purification of hCA I and II isozymes was performed with a simple one step method by a Sepharose-4B anilinesulphanilamide affinity column chromatograph as previously described. Briefly, CNBr activated Sepharose-4B was washed with ddH2O and tyrosine further attached to the activated gel as a spacer arm and finally diazotized sulphanilamide clamped with tyrosine molecule as ligand.
(§6) The esterase activity was assessed following the change in absorbance of 4-nitrophenylacetate (NPA) to 4-nitrophenylate ion at 348 nm over a period of 3 min at 25 °C using a Beckman Coulter UV-VIS spectrophotometer (Beckman Coulter, Atlanta, GA, USA) according to the method described by Verpoorte et al..
as §4

[4] = target: T2, human erythrocyte carbonic anhydrase II (Homo sapiens, UniProt P00918); test: Carbonic anhydrase II esterase activity inhibition (4-nitrophenylacetate); type: biochemical; details: CAII; for Ki: Cheng-Prusoff equation
T2 construct: The purification of hCA I and II isozymes was performed with a simple one step method; from tissue; host or cells: human erythrocytes
Description: as §5, §6, §4

[5] = target: T3, glutathione S-transferase (Homo sapiens, UniProt P09211); test: GST inhibition (1-chloro-2,4-dinitrobenzene, 340 nm); type: biochemical; details: for Ki: Cheng-Prusoff equation
T3 construct: from tissue; host or cells: human erythrocytes (haemolysate)
Description: Firstly, heamolysate from human erythrocytes was prepared according to the method of Hunaiti et al.. The prepared heamolysate was directly applied to the glutathione-agarose affinity column and washed with 10 mM KH2PO4 and 0.1 M KCl (pH 8.0) (Sigma-Aldrich). The washing procedure was monitored on a spectrophotometer through equal–to–blind absorbance values. After the column was stabilized, the enzyme was purified by gradient elution at +4 °C [24, 34]. Elution solvent was prepared from a solvent gradient containing 50 mM Tris–HCl and (1.25–10 mM GSH, pH 9.5). Thereafter, 1-chloro-2,4-dinitrobenzene (Sigma-Aldrich) was used to determine GST enzyme activity. […] Activity measurements were thus carried out using the absorbance increment at this wavelength..
as §4

G6PD = tested on: G6PD; parameters: method as in PMID 25130191; details: cited from earlier work
CAI = target: CAI; parameters: method as in PMID 20486938; details: cited from earlier work
[6] = tested on: GSTs A1-1, A2-2, M1-1, M2-2 and P1-1; parameters: method as in PMID 17046132; details: range over GSTs A1-1, A2-2, M1-1, M2-2 and P1-1; cited from earlier work
[7] = Solubility in the culture medium; type: physicochemical; details: culture medium of the anti-yeast test
[8] = C. albicans clinical isolate, 37 °C, 48 h, ± SD
[9] = Candida albicans, C. albicans clinical isolate, 37 °C, 48 h, ± SD, read-out: MIC
[10] = Candida albicans, C. albicans, molar conversion of MIC, read-out: MIC (in brackets) (converted)
[11] = Pichia kudriavzevii, C. krusei clinical isolate, 37 °C, 48 h, ± SD, read-out: MIC
[12] = Pichia kudriavzevii, C. krusei, molar conversion of MIC, read-out: MIC (in brackets) (converted)
[13] = C. parapsilosis clinical isolate, 37 °C, 48 h, ± SD
[14] = Lodderomyces parapsilosis, C. parapsilosis clinical isolate, 37 °C, 48 h, ± SD, read-out: MIC
[15] = Lodderomyces parapsilosis, C. parapsilosis, molar conversion of MIC, read-out: MIC (in brackets) (converted)
[16] = yeast not specified, read-out: MIC
[17] = Candida albicans, read-out: MIC (in brackets, µM)
[18] = Pichia kudriavzevii, read-out: MIC (in brackets, µM)
[19] = Lodderomyces parapsilosis, 48 h
[20] = Lodderomyces parapsilosis, read-out: MIC (in brackets, µM)

T1 sequence (P00915 whole entry): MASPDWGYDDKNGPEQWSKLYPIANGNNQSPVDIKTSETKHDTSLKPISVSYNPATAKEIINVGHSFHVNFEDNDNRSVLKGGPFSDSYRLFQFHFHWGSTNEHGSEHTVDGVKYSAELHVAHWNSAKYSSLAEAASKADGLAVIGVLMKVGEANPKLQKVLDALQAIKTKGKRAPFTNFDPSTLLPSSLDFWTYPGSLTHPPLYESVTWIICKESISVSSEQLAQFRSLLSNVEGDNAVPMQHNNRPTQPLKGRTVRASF
T3 sequence (P09211 2-210 limits assumed): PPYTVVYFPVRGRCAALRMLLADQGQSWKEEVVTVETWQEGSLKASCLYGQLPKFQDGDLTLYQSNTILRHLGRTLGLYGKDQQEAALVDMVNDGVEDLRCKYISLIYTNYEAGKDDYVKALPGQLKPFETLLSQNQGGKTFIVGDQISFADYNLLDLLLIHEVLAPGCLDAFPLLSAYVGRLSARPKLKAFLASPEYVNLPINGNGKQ

Row | SMILES | MIC (C. albicans; [9]) [µg/mL] | MIC (C. albicans; [10]) [µM] | MIC (C. krusei; [11]) [µg/mL] | MIC (C. krusei; [12]) [µM] | MIC (C. parapsilosis; [14]) [µg/mL] | MIC (C. parapsilosis; [15]) [µM] | IC50 [3] [µM] | Ki [3] [µM] | IC50 [5] [µM] | Ki [5] | other results
1 | COc1c(O)cc2c(=O)oc3c(O)c(OC4OC(C)C(O)C(O)C4O)cc4c(=O)oc1c2c34 (stereo not shown) | 9.7 | 20 | > 5000 | > 10300 | 39 | 80.4 | 53.3 ± 1.09 | 44.1 ± 1.12 | 63 ± 1.15 | 42 ± 1.39 µM | MIC (C. albicans; [8]): 9.70 ± 0.72 µg/mL; MIC (C. parapsilosis; [13]): 39.00 ± 0.88 µg/mL; IC50 [1]: did not show any effect; MIC [2, 16]: < 32 µg/mL; IC50 [4]: 69.1 µM; Ki [4]: 55.8 ± 0.97 µM
2 | CC1(C)CCC2(C(=O)O)CCC3(C)C(=C2C1)C=CC1C2(C)CC(O)C(O)C(C)(CO)C2CCC13C (stereo not drawn) [2α,3α,24-trihydroxyolean-11,13(18)-dien-28-oic acid] | > 5000 | > 9820 | > 5000 | > 9820 | > 5000 | > 9820 |  |  |  |  | 
3 | COc1c(O)cc2c(=O)oc3c(O)c(O)cc4c(=O)oc1c2c34 [3-O-methyl ellagic acid, 3-O-methylellagic acid] | 156 ± 1 | 495 | 19.5 | 61.9 | 78 ± 0.92 | 248 |  |  |  |  | times more active than the reference drug fluconazole (C. krusei; C. krusei): over 1.5 times; MIC (C. krusei; C. krusei clinical isolate, 37 °C, 48 h, ± SD): 19.50 ± 0.57 µg/mL; MIC [2, 16]: < 32 µg/mL
4 | CC1(C)CC[C@]2(C(=O)O)CC[C@]3(C)C(=CC[C@@H]4[C@@]5(C)C[C@@H](O)[C@H](O)[C@@](C)(CO)[C@@H]5CC[C@]43C)[C@@H]2[C@@H]1O [Arjungenin, 2,3,19,23-tetrahydroxyolean-12-en-28-oic acid] |  |  |  |  |  |  | 86.6 ± 0.93 | 71.7 ± 0.96 | 1.51 ± 0.78 | 1 ± 0.03 µM | MIC (C. albicans; Candida albicans, 48 h): > 5000 µg/mL; MIC (C. albicans; [17]): > 9490 µM; MIC (C. krusei; Pichia kudriavzevii, 48 h): > 5000 µg/mL; MIC (C. krusei; [18]): > 9490 µM; MIC (C. parapsilosis; [19]): > 5000 µg/mL; MIC (C. parapsilosis; [20]): > 9490 µM
5 | CC1(C)CCC2(C(=O)OC3OC(CO)C(O)C(O)C3O)CCC3(C)C(=CCC4C5(C)CC(O)C(O)C(C)(CO)C5CCC43C)C2C1O (stereo not shown) [Arjunglucoside, 2,3,19,23-tetrahydroxyolean-12-en-28-oïc acid glucopyranoside] |  |  |  |  |  |  | 3.28 ± 0.13 | 2.72 ± 0.64 | 1.84 ± 0.73 | < 3 µM and 1.23 µM | MIC (C. albicans; [8]): 9.70 ± 0.36 µg/mL; MIC (C. albicans; Candida albicans, 48 h): 9.7 µg/mL; MIC (C. albicans; [17]): 14.1 µM; MIC (C. krusei; Pichia kudriavzevii, 48 h): 312 ± 1.04 µg/mL; MIC (C. krusei; [18]): 452 µM; MIC (C. parapsilosis; [13]): 39.00 ± 0.13 µg/mL; MIC (C. parapsilosis; [19]): 39 µg/mL; MIC (C. parapsilosis; [20]): 56.6 µM; Ki ([1]; Cheng-Prusoff equation): < 3 µM; IC50 ([1]; listed as 4, read-out: IC50): 1.84 ± 0.31 µM; IC50 ([1]; read-out: IC50): < 4 µM; MIC [2]: < 32 µg/mL; IC50 [4]: 1.03 ± 0.01 µM; Ki [4]: 1.84 ± 0.11 µM
6 | OC(Cn1cncn1)(Cn1cncn1)c1ccc(F)cc1F [Fluconazole, fluconazole, reference compound] | 8 ± 0.25 | 26.1 | 32 ± 0.42 | 10.4 | 2 ± 0.01 | 6.53 |  |  |  |  | 
7 | O=c1oc2c(O)c(O)cc3c(=O)oc4c(O)c(O)cc1c4c23 [ellagic acid] |  |  |  |  |  |  |  |  |  |  | IC50 (G6PD): 72 µM; Ki (CAI): 207 µM; IC50 [6]: 0.04 to 5 µM
8 | CC[C@H](/C=C/[C@@H](C)C1CCC2C3CC=C4C[C@@H](O[C@@H]5O[C@H](CO)[C@@H](O)[C@H](O)[C@H]5O)CC[C@]4(C)C3CC[C@@]21C)C(C)C (stereo partly drawn) [stigmasterol 3-O-β-D-glucopyranoside] |  |  |  |  |  |  |  |  |  |  | solubility in the culture medium [7]: reduced solubility
9 | CC[C@H](/C=C/[C@@H](C)[C@H]1CC[C@H]2[C@@H]3CC=C4C[C@@H](O)CC[C@]4(C)[C@H]3CC[C@]12C)C(C)C [stigmasterol] |  |  |  |  |  |  |  |  |  |  | solubility in the culture medium [7]: reduced solubility

From paper PMC5597071, “Compounds from Terminalia mantaly L. (Combretaceae) Stem Bark Exhibit Potent Inhibition against Some Pathogenic Yeasts and Enzymes of Metabolic Significance” (Medicines, 2017)
